Reference: PubChem BioAssay AID2060485 (Molecular Pharmacology Branch, DTP, NCI, 2025)

System: A375 multi-cell spheroids with HUVEC/MSC, viability
Assay: Anticancer human tumor A375 cell line growth inhibition [GQUAD];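 also: spheroids exposed to compounds for seven days before readout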
Details: for IC50: curve of first compound; for viability, T/C: stronger effect = lower value
Method in brief: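 Tumor cells were grown as complex spheroids with HUVEC endothelial cells and mesenchymal stem cells as stroma. G-quadruplex stabilizers were combined with targeted agents over half-log dilutions from near the clinical Cmax, or from 10 microM.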

[1] = second compound 0.0316 µM, first compound 0.0316 µM
[2] = second compound 0.0316 µM, first compound 0.1 µM
[3] = second compound 0.0316 µM, first compound 0.316 µM
[4] = second compound 0.0316 µM, first compound 1 µM
[5] = second compound 0.0316 µM, first compound 3.16 µM
[6] = second compound 0.0316 µM, first compound 10 µM
[7] = second compound 0.1 µM, first compound 0.0316 µM
[8] = second compound 0.1 µM, first compound 0.1 µM
[9] = second compound 0.1 µM, first compound 0.316 µM
[10] = second compound 0.1 µM, first compound 1 µM
[11] = second compound 0.1 µM, first compound 3.16 µM
[12] = second compound 0.1 µM, first compound 10 µM
[13] = second compound 0.316 µM, first compound 0.0316 µM
[14] = second compound 0.316 µM, first compound 0.1 µM
[15] = second compound 0.316 µM, first compound 0.316 µM
[16] = second compound 0.316 µM, first compound 1 µM
[17] = second compound 0.316 µM, first compound 3.16 µM
[18] = second compound 0.316 µM, first compound 10 µM
[19] = second compound 1 µM, first compound 0.0316 µM
[20] = second compound 1 µM, first compound 0.1 µM
[21] = second compound 1 µM, first compound 0.316 µM
[22] = second compound 1 µM, first compound 1 µM
[23] = second compound 1 µM, first compound 3.16 µM
[24] = second compound 1 µM, first compound 10 µM
[25] = second compound 3.16 µM, first compound 0.0316 µM
[26] = second compound 3.16 µM, first compound 0.1 µM
[27] = second compound 3.16 µM, first compound 0.316 µM
[28] = second compound 3.16 µM, first compound 1 µM
[29] = second compound 3.16 µM, first compound 3.16 µM
[30] = second compound 3.16 µM, first compound 10 µM
[31] = second compound 10 µM, first compound 0.0316 µM
[32] = second compound 10 µM, first compound 0.1 µM
[33] = second compound 10 µM, first compound 0.316 µM
[34] = second compound 10 µM, first compound 1 µM
[35] = second compound 10 µM, first compound 3.16 µM
[36] = second compound 10 µM, first compound 10 µM

COc1cc(C2c3cc4c(cc3C(OC3OC5COC(C)OC5C(O)C3O)C3COC(=O)C23)OCO4)cc(OC)c1O (stereo unspecified) + Cc1cnc(CNC(=O)c2c(=O)c3ccc(N4CCCN(C)CC4)nc3n3c2sc2ccccc23)cn1
IC50 (second compound 0.0316 µM): 656 nM
IC50 (second compound 0.1 µM): 213 nM
IC50 (second compound 0.316 µM): < 31.6 nM
IC50 (second compound 1 µM): < 31.6 nM
IC50 (second compound 3.16 µM): < 31.6 nM
IC50 (second compound 10 µM): < 31.6 nM
viability, T/C [1]: 110%
viability, T/C [2]: 90.6%
viability, T/C [3]: 65.6%
viability, T/C [4]: 40.7%
viability, T/C [5]: 27.4%
viability, T/C [6]: 20.2%
viability, T/C [7]: 73.6%
viability, T/C [8]: 59.8%
viability, T/C [9]: 43.6%
viability, T/C [10]: 33.5%
viability, T/C [11]: 25.8%
viability, T/C [12]: 14.7%
viability, T/C [13]: 48.3%
viability, T/C [14]: 50.2%
viability, T/C [15]: 37.8%
viability, T/C [16]: 32.4%
viability, T/C [17]: 22.1%
viability, T/C [18]: 14.3%
viability, T/C [19]: 40.1%
viability, T/C [20]: 38.6%
viability, T/C [21]: 30.6%
viability, T/C [22]: 30.7%
viability, T/C [23]: 22.3%
viability, T/C [24]: 15.3%
viability, T/C [25]: 34%
viability, T/C [26]: 32.5%
viability, T/C [27]: 31%
viability, T/C [28]: 26%
viability, T/C [29]: 23.4%
viability, T/C [30]: 13.9%
viability, T/C [31]: 29.2%
viability, T/C [32]: 28.1%
viability, T/C [33]: 31.8%
viability, T/C [34]: 27.3%
viability, T/C [35]: 21%
viability, T/C [36]: 13.4%

COc1cccc2c1C(=O)c1c(O)c3c(c(O)c1C2=O)CC(O)(C(=O)CO)CC3OC1CC(N)C(O)C(C)O1 (stereo unspecified) + Cc1cnc(CNC(=O)c2c(=O)c3ccc(N4CCCN(C)CC4)nc3n3c2sc2ccccc23)cn1
IC50 (second compound 0.0316 µM): 168 nM
IC50 (second compound 0.1 µM): 56.2 nM
IC50 (second compound 0.316 µM): < 31.6 nM
IC50 (second compound 1 µM): < 31.6 nM
IC50 (second compound 3.16 µM): < 31.6 nM
IC50 (second compound 10 µM): < 31.6 nM
viability, T/C [1]: 109%
viability, T/C [2]: 64.1%
viability, T/C [3]: 31.2%
viability, T/C [4]: 20.5%
viability, T/C [5]: 1.64%
viability, T/C [6]: 0.08%
viability, T/C [7]: 59.3%
viability, T/C [8]: 38.7%
viability, T/C [9]: 30.2%
viability, T/C [10]: 17.9%
viability, T/C [11]: 1%
viability, T/C [12]: 0.06%
viability, T/C [13]: 41.5%
viability, T/C [14]: 33.4%
viability, T/C [15]: 27.4%
viability, T/C [16]: 16.1%
viability, T/C [17]: 0.21%
viability, T/C [18]: 0.08%
viability, T/C [19]: 37.1%
viability, T/C [20]: 30.9%
viability, T/C [21]: 27.4%
viability, T/C [22]: 15.2%
viability, T/C [23]: 0.07%
viability, T/C [24]: 0.09%
viability, T/C [25]: 33%
viability, T/C [26]: 31.4%
viability, T/C [27]: 24.5%
viability, T/C [28]: 14.9%
viability, T/C [29]: 0.12%
viability, T/C [30]: 0.13%
viability, T/C [31]: 25.6%
viability, T/C [32]: 24.9%
viability, T/C [33]: 20.4%
viability, T/C [34]: 13.7%
viability, T/C [35]: 0.21%
viability, T/C [36]: 0.22%

Cc1cccc(N(C)C(=O)C2C(O)CCN2c2nc(C)cc(C(F)(F)F)c2C#N)c1 (stereo unspecified) + Cc1cnc(CNC(=O)c2c(=O)c3ccc(N4CCCN(C)CC4)nc3n3c2sc2ccccc23)cn1
IC50 (second compound 0.0316 µM): > 10000 nM
IC50 (second compound 0.1 µM): > 10000 nM
IC50 (second compound 0.316 µM): > 10000 nM
IC50 (second compound 1 µM): < 31.6 nM
IC50 (second compound 3.16 µM): < 31.6 nM
IC50 (second compound 10 µM): < 31.6 nM
viability, T/C [1]: 104%
viability, T/C [2]: 89.9%
viability, T/C [3]: 104%
viability, T/C [4]: 107%
viability, T/C [5]: 99.3%
viability, T/C [6]: 122%
viability, T/C [7]: 75.8%
viability, T/C [8]: 69.7%
viability, T/C [9]: 77.2%
viability, T/C [10]: 76%
viability, T/C [11]: 78.8%
viability, T/C [12]: 71.8%
viability, T/C [13]: 55.6%
viability, T/C [14]: 52%
viability, T/C [15]: 50.4%
viability, T/C [16]: 52.2%
viability, T/C [17]: 63.3%
viability, T/C [18]: 60.9%
viability, T/C [19]: 42.9%
viability, T/C [20]: 41.6%
viability, T/C [21]: 42.8%
viability, T/C [22]: 41.8%
viability, T/C [23]: 49.2%
viability, T/C [24]: 38.4%
viability, T/C [25]: 30.5%
viability, T/C [26]: 31.4%
viability, T/C [27]: 41%
viability, T/C [28]: 31.8%
viability, T/C [29]: 35.6%
viability, T/C [30]: 38.4%
viability, T/C [31]: 31.8%
viability, T/C [32]: 29.8%
viability, T/C [33]: 33.9%
viability, T/C [34]: 33.1%
viability, T/C [35]: 35.4%
viability, T/C [36]: 32.1%
